Measurements taken from paper PMC12559995 (RSC Advances, 2025).

What was measured:
[1] = DPPH free radical scavenging assay; conditions: read-out: DPPH IC50; 0.1 mM DPPH, 30 min, 517 nm; mean ± SD
[2] = tested on: MCF-7 (human breast adenocarcinoma) cells; assay: Cytotoxicity assay; assay type: cell-based; conditions: MCF7, 48 h, read-out: IC50 (MCF-7)
[3] = tested on: Plasmodium falciparum 3D7; assay: Antimalarial assay; assay type: cell-based
[4] = tested on: HEK-293 (normal human embryonic kidney) cells; assay: Cytotoxicity assay; assay type: cell-based; conditions: HEK293, 48 h, read-out: IC50 (HEK-293)

Row | Compound | IC50 [1] [µM] | IC50 [2] [µM] | IC50 ([3]; Plasmodium falciparum, 3D7, 72 h, read-out: Antimalarial IC50) [µM] | Selectivity index (HEK/IC50) ([3]; SI = IC50 (HEK-293)/IC50 (antimalarial)) | IC50 [4] [µM]
1 | O=C1O[C@H]([C@@H](O)CO)C(O)=C1O [Ascorbic acid, reference compound] | 5.21 ± 0.06 | – | – | – | –
2 | CC(=NNC(=S)NN=C(C(=NO)c1ccccc1)c1ccccc1)c1ccccc1C [HBMT-MA7, N'-[2-(Hydroxyimino)-1,2-diphenylethylidene]-2-[1-(o-tolyl)ethylidene]hydrazine-1-carbothiohydrazide] | 10.5 ± 0.19 | 29.7 ± 1 | 2.91 ± 0.14 | 23.4 | 68.2 ± 1.8
